The subject of assay [1] is Human immunodeficiency virus 1. Nature of the assay: Antiviral activity against HIV1 in the absence of human serum. In kind it is functional, organism-based.
The subject of assay [2] is Human immunodeficiency virus 1. In words: Antiviral activity against HIV1 in the presence of 50% human serum. In kind it is functional, organism-based.
Assay [3] has as its target Human immunodeficiency virus type 1 protease (Human immunodeficiency virus 1, UniProt Q72874). In words: Inhibitory activity against HIV1 protease.
Assay [4] has as its system Human immunodeficiency virus. Nature of the assay: Antiviral activity against Lopinavir resistant HIV A17 mutant strain. In kind it is functional, organism-based. The following applies: Human immunodeficiency virus 1, A17.
Assay [5] relates to Human immunodeficiency virus. Nature of the assay: Antiviral activity against indinavir resistant HIV IND-R mutant strain. In kind it is functional, organism-based. To be noted: Human immunodeficiency virus 1, IND-R.
Assay [6] addresses Human immunodeficiency virus type 1 protease (Human immunodeficiency virus 1) (UniProt Q72874). In words: Inhibitory activity against HIV1 protease at 0.5 uM.
Assay [7] shares this target. In words: Inhibitory activity against HIV1 protease at 1 uM.

pEC50, pIC50: −log10 of the molar value.

`COc1cc(CN2C(=O)N(Cc3ccc(O)c(OC)c3)N(C(=O)CN3CCCC3)C[C@@H](O)[C@H]2Cc2ccccc2)ccc1O`: the pEC50 was 6.24 in assay [1] and 6.31 in assay [2]. In addition, the pIC50 in assay [3] was 8.10.
`CC(C)CC(=O)N1C[C@@H](O)[C@@H](Cc2ccccc2)N(Cc2ccc(O)cc2)C(=O)N1Cc1ccc(O)cc1`: the results for the pEC50 in assay [4], in assay [1] and in assay [5] were 6.51, 7.52 and 6.77, respectively. This compound also had an inhibition in assay [6] of 65%.
For `COc1cc(CN2C(=O)N(Cc3ccc(N)c(OC)c3)N(C(=O)CCc3ccccc3)C[C@@H](O)[C@H]2Cc2ccccc2)ccc1N`, the pEC50 was 6.33 in assay [4], 7.28 in assay [1] and 6.30 in assay [5]. Besides, in assay [6], the inhibition was found to be 88%.
As for `COc1cc(CN2C(=O)N(Cc3ccc(O)c(OC)c3)N(C(=O)CC(C)C)C[C@@H](O)[C@H]2Cc2ccccc2)ccc1O`, the pEC50 in assay [4] was 6.23; in assay [1] it was 8.05; in assay [2], 7.57; in assay [5] it was 7.03. This compound also came in with an inhibition in assay [6] of 73%.
As to `COc1cc(CN2C(=O)N(Cc3ccc(O)c(OC)c3)N(C(=O)CCc3ccc4c(c3)OCO4)C[C@@H](O)[C@H]2Cc2ccccc2)ccc1O`, the pEC50 was 7.19 in assay [4], 8.40 in assay [1], 7.25 in assay [2] and 7.27 in assay [5]. In assay [6], this compound came in with an inhibition of 73%.
Compound `CC(C)CC(=O)N1C[C@@H](O)[C@@H](Cc2ccccc2)N(Cc2ccc(N)cc2)C(=O)N1Cc1ccc(N)cc1` had a pEC50 in assay [1] of 6.82. The compound also showed an inhibition in assay [7] of 56%.
For the compound `O=C(CCc1ccccc1)N1C[C@@H](O)[C@@H](Cc2ccccc2)N(Cc2ccccc2)C(=O)N1Cc1ccc2[nH]ncc2c1`, the pEC50 is 5.97 in assay [4], 7.35 in assay [1] and 6.09 in assay [5]. Also, the inhibition in assay [6] was found to be 66%.
Turning to `COc1cc(CN2C(=O)N(Cc3ccc(O)c(OC)c3)N(C(=O)CCc3ccco3)C[C@@H](O)[C@H]2Cc2ccccc2)ccc1O`, the pEC50 in assay [4] is 6.34; in assay [1], 8.52; in assay [2] it was 7.80; in assay [5] it was 7.09. In assay [6], this compound came in with an inhibition of 73%.
In the same order, the values of `COc1cc(CN2C(=O)N(Cc3ccc(O)c(OC)c3)N(C(=O)CCc3ccc(F)cc3)C[C@@H](O)[C@H]2Cc2ccccc2)ccc1O` are 6.72, 8.40, 7.55, 6.79 and 67%.
As to `COc1cc(CN2C(=O)N(Cc3ccc(O)c(OC)c3)N(C(=O)CCCC3CCCO3)C[C@@H](O)[C@H]2Cc2ccccc2)ccc1O` (some centres not stated), the pEC50 was 8.05 in assay [1] and 7.11 in assay [2]. For the same compound, the inhibition in assay [6] came to 76%.
In the case of `N/C(=N/O)c1cccc(CN2C(=O)N(Cc3ccccc3)N(C(=O)CCc3ccccc3)C[C@@H](O)[C@H]2Cc2ccccc2)c1`, the pEC50 in assay [4] is 5.69; in assay [1], 7.35. Moreover, the inhibition in assay [6] came out at 73%.
Regarding `COc1cc(CN2C(=O)N(Cc3ccc(O)c(OC)c3)N(Cc3ccccc3)C[C@@H](O)[C@H]2Cc2ccccc2)ccc1O`, the pEC50 in assay [1] was 8.40; in assay [2], 7.54. The same compound registered an inhibition in assay [6] of 81%.
As to `Nc1[nH]nc2ccc(CN3C(=O)N(Cc4ccccc4)[C@H](Cc4ccccc4)[C@H](O)CN3C(=O)CCc3ccccc3)cc12`, the pEC50 in assay [4] is 6.05; in assay [1], 7.30; in assay [5], 6.99. In assay [6], the inhibition amounted to 48%.
As for `COc1cc(CN2C(=O)N(Cc3ccc(O)c(OC)c3)N(C(=O)CCc3ccoc3)C[C@@H](O)[C@H]2Cc2ccccc2)ccc1O`, the pEC50 was 6.25 in assay [4], 8.05 in assay [1], 7.74 in assay [2] and 6.64 in assay [5]. The inhibition in assay [6] is 68%.
For `O=C(CCc1ccccc1)N1C[C@@H](O)[C@@H](Cc2ccccc2)N(Cc2ccc(O)cc2)C(=O)N1Cc1ccc(O)cc1`, the pEC50 was 6.72 in assay [4], 7.77 in assay [1] and 7.85 in assay [5]. Moreover, in assay [6], the inhibition came out at 76%.
Take `COc1cc(CN2C(=O)N(Cc3ccc(O)c(OC)c3)N(C(=O)CN3CCNCC3)C[C@@H](O)[C@H]2Cc2ccccc2)ccc1O`: the pEC50 in assay [1] is 5.83; in assay [2], 5.49. The pIC50 in assay [3] was 8.21.
For `CC(C)CC(=O)N1C[C@@H](O)[C@@H](Cc2ccccc2)N(Cc2cccc(N)c2)C(=O)N1Cc1cccc(N)c1`, the values for the pEC50 in assay [4] and in assay [1] were 5.68 and 7.43, respectively. For the same compound, in assay [6], the inhibition came out at 66%.
Consider `Cc1cccc(C)c1OCC(=O)N[C@@H](Cc1ccccc1)[C@@H](O)C[C@H](Cc1ccccc1)NC(=O)[C@H](C(C)C)N1CCCNC1=O` [LOPINAVIR], for which the pEC50 was 5.97 in assay [4], 7.80 in assay [1], 7.17 in assay [2] and 6.41 in assay [5].
Regarding `COc1cc(CN2C(=O)N(Cc3ccc(O)c(OC)c3)N(C(=O)CCCCN3CCOCC3)C[C@@H](O)[C@H]2Cc2ccccc2)ccc1O`, the pEC50 is below 5.00 in assay [4], 7.07 in assay [1], 6.32 in assay [2] and 5.98 in assay [5]. Moreover, the pIC50 in assay [3] was 8.68.
`COc1cc(CN2C(=O)N(Cc3ccc(O)c(OC)c3)N(C(=O)CCc3ccncc3)C[C@@H](O)[C@H]2Cc2ccccc2)ccc1O`: the pEC50 in assay [1] was 6.67; in assay [2], 6.26. This compound also showed a pIC50 in assay [3] of 8.92.
Consider `Nc1cccc(CN2C(=O)N(Cc3ccc4[nH]ncc4c3)N(C(=O)CCc3ccccc3)C[C@@H](O)[C@H]2Cc2ccccc2)c1`, for which the pEC50 was 7.01 in assay [4], 7.89 in assay [1] and 7.64 in assay [5]. For the same compound, the inhibition in assay [6] was determined as 74%.
Consider `COc1cc(CN2C(=O)N(Cc3ccc(O)c(OC)c3)N(C(=O)CCCN3CCOCC3)C[C@@H](O)[C@H]2Cc2ccccc2)ccc1O`, for which the pEC50 in assay [1] is 6.51; in assay [2], 6.24. This compound also had a pIC50 in assay [3] of 8.42.
Take `COc1cc(CN2C(=O)N(Cc3ccc(O)c(OC)c3)N(C(=O)CCc3ccc(OC)c(OC)c3)C[C@@H](O)[C@H]2Cc2ccccc2)ccc1O`: the pEC50 in assay [1] was 7.82; in assay [2] it was 7.33. Also, the inhibition in assay [6] was 72%.
As to `N/C(=N/O)c1cccc(CN2C(=O)N(Cc3ccc4[nH]ncc4c3)N(C(=O)CCc3ccccc3)C[C@@H](O)[C@H]2Cc2ccccc2)c1`, the pEC50 was 7.08 in assay [4], 7.13 in assay [1] and 7.24 in assay [5]. The inhibition in assay [6] was 90%.
Consider `COc1cc(CN2C(=O)N(Cc3ccc(O)c(OC)c3)N(C(=O)CCc3cccnc3)C[C@@H](O)[C@H]2Cc2ccccc2)ccc1O`, for which the pEC50 in assay [1] was 7.27; in assay [2] it was 6.45. Further, in assay [6], the inhibition was found to be 58%.
As to `COc1ccc(CCC(=O)N2C[C@@H](O)[C@@H](Cc3ccccc3)N(Cc3ccc(O)c(OC)c3)C(=O)N2Cc2ccc(O)c(OC)c2)cc1`, the pEC50 in assay [4] was 6.88; in assay [1] it was 8.22; in assay [2] it was 7.32; in assay [5], 7.06. For the same compound, the inhibition in assay [6] was determined as 67%.
`CC(C)c1nc(CN(C)C(=O)N[C@H](C(=O)N[C@@H](Cc2ccccc2)C[C@H](O)[C@H](Cc2ccccc2)NC(=O)OCc2cncs2)C(C)C)cs1` [RITONAVIR]: the pEC50 in assay [4] was 5.91; in assay [1], 7.66; in assay [2], 6.32.
Turning to `COc1cc(CN2C(=O)N(Cc3ccc(O)c(OC)c3)N(C(=O)CCc3ccc(O)cc3)C[C@@H](O)[C@H]2Cc2ccccc2)ccc1O`, the pEC50 in assay [1] is 7.21; in assay [2], 6.78. This compound also came in with an inhibition in assay [6] of 73%.
In the case of `COc1cc(CN2C(=O)N(Cc3ccc(O)c(OC)c3)N(C(=O)CC3CCCC3)C[C@@H](O)[C@H]2Cc2ccccc2)ccc1O`, the pEC50 in assay [4] was 6.44; in assay [1], 8.52; in assay [2], 7.22; in assay [5], 6.88. In assay [6], this compound registered an inhibition of 66%.
For the compound `COc1cccc(CCC(=O)N2C[C@@H](O)[C@@H](Cc3ccccc3)N(Cc3ccc(O)c(OC)c3)C(=O)N2Cc2ccc(O)c(OC)c2)c1`, the pEC50 in assay [1] is 8.40; in assay [2], 7.21. The compound also showed an inhibition in assay [6] of 67%.
In the case of `COc1cc(CN2C(=O)N(Cc3ccc(O)c(OC)c3)N(C(=O)CCCc3ccccc3)C[C@@H](O)[C@H]2Cc2ccccc2)ccc1O`, the pEC50 is 8.30 in assay [1] and 7.57 in assay [2]. In assay [6], this compound registered an inhibition of 75%.
In the same order, the values of `COc1cc(CN2C(=O)N(Cc3ccc(O)c(OC)c3)N(C(=O)COc3ccccc3)C[C@@H](O)[C@H]2Cc2ccccc2)ccc1O` are 6.03, 5.29 and 53%.
With `COc1cc(CN2C(=O)N(Cc3ccc(O)c(OC)c3)N(C(=O)CCc3ccccc3)C[C@@H](O)[C@H]2Cc2ccccc2)ccc1O`, the pEC50 is 6.99 in assay [4], 8.40 in assay [1], 7.55 in assay [2] and 7.31 in assay [5]. The inhibition in assay [6] was 55%.
Turning to `COc1cc(CN2C(=O)N(Cc3ccc(O)c(OC)c3)N(C(=O)CCCc3cccs3)C[C@@H](O)[C@H]2Cc2ccccc2)ccc1O`, the pEC50 in assay [1] was 8.40; in assay [2], 7.25. Besides, in assay [6], the inhibition was found to be 64%.

A word on the pEC50: it is the negative decadic logarithm of the EC50, by convention in mol/L. A word on the pIC50: it is −log10 of the IC50, conventionally taken in molar units. Low values mean a large IC50, high ones a small IC50. For orientation: inhibition means the relative decrease from the control value, in per cent. Lower therefore signals a response near the control.

For the origin of these results see ChEMBL document CHEMBL1141237, “Synthesis and activity of N-acyl azacyclic urea HIV-1 protease inhibitors with high potency against multiple drug resistant viral strains” (Bioorg Med Chem Lett, 2005).
